# Measurements taken from patent publication US7648967B2, “Mutagenic nucleoside analogs for the treatment of viral disease” (priority 2001, dated 2010).
# pEC50, pIC50: −log10 of the molar value. Like-named read-outs stand apart in the source and are kept apart here.
# Assays:
# BVDV [1] = assay: Antiviral activity against BVDV by passaging virus in BT cells (CPE and viral titer); assay type: cell-based, bovine viral diarrhea virus; details: for viral replication: after a single passage
# Method: (§1) Cytotoxicity was assayed using graded amounts of nucleoside analog in CV-1 cells or BT cells. 100 pfu of virus was inoculated in 10^5 CV-1 cells (MV) or BT cells (BVDV). Antiviral activity against MV or BVDV (an HCV surrogate) was tested by passaging the virus in the presence or absence of analog.
# (§2) In screening experiments, replication of MV or BVDV was assessed by cytopathic effect (CPE) and viral titer after growth in cells for three to four days in the presence or absence of drug. […] Experiments were performed in triplicate (see FIGS. 2 and 4).
# measles virus (MV) [2] = assay: Antiviral activity against MV by passaging virus in CV-1 cells (CPE and viral titer); assay type: cell-based
# Method: as §1, §2
# BVDV [3] = assay: Sequencing of BVDV glycoprotein fragment for viral mutagenesis; assay type: cell-based, bovine viral diarrhea virus; details: 2 mM, passage 1, BVDV glycoprotein fragment, vs DMSO control
# Method: Fragment of 1 kb glycoprotein gene of clones BVDV at passage 1, BVDV treated with 2 mM 5-formyl-uridine vs. DMSO control.
# (§3) For 5-formyl-uridine, sequencing was performed to confirm that viral extinction was due to viral mutagenesis by the nucleoside. Clones of MV were selected from treated and control virus at passage 4 and a 1 kb fragment of the matrix and a 1.7 kb fragment of the polymerase were sequenced. […] A fragment of the BVDV glycoprotein was also sequenced, in which the BVDV virus was treated with 2 mM 5-formyl-uridine.
# measles virus (MV) [4] = assay: Sequencing of MV clones (matrix and polymerase fragments) for viral mutagenesis; assay type: cell-based; details: 0.15 mM, passage 4, 1 kb matrix and 1.7 kb polymerase fragments, vs DMSO control
# Method: Fragment of 1 kb of matrix gene and 1.7 kb of polymerase of cones MV at passage 4, MV treated with 0.15 mM 5-formyl uridine vs. DMSO control.
# as §3
# CV-1 cells or BT cells = assay: Cytotoxicity with graded amounts of nucleoside analog; assay type: cell-based; details: Cercopithecidae, cell line (CV-1 or BT) not specified
# Method: as §1
# [5] = concentration of 0.5 mM, within one passage
# [6] = Bovine viral diarrhea virus isolates and strains
structure (smiles),measurement,setting,value
"Nc1nc(N)c2ncn([C@@H]3O[C@H](CO)[C@@H](O)[C@H]3O)c2n1 [2,6 diaminopurine riboside]",viral replication,BVDV [1]; BVDV,inhibited
same,pEC50,"BVDV [1]; BVDV, read-out: EC50",4.15
O=Cc1cn([C@@H]2O[C@H](CO)[C@@H](O)[C@H]2O)c(=O)[nH]c1=O [5-formyl-uridine],pEC50,"measles virus (MV) [2]; Measles morbillivirus, CV-1",3.82
same,EC90,"measles virus (MV) [2]; Measles morbillivirus, CV-1",300 µM
same,inhibition of MV replication,measles virus (MV) [2]; [5],completely inhibited
same,increase in mutation,BVDV [3],3.75 fold
same,mutation rate above the spontaneous mutation rate of MV,measles virus (MV) [4],1.6 fold
same,pEC50,BVDV [1]; [6],3.82
same,EC90,BVDV [1]; [6],400 µM
same,inhibition of BVDV replication,BVDV [1]; [5],completely inhibited
same,pIC50,CV-1 cells or BT cells,< 3.00
Nc1[nH]c(=O)nc2c1ncn2[C@@H]1O[C@H](CO)[C@@H](O)[C@H]1O [isoguanosine],viral replication,BVDV [1]; BVDV,inhibited
same,pEC50,BVDV [1]; [6],4.10
